Reference: PubChem BioAssay AID256 (DTP/NCI, 2004)
Values joined by “and” are separate entries in the source; they are usually repeats but may differ in a detail not shown here. Identical values can stand only once. Toxic doses and inconclusive results are not listed.

Test system: CD2F1 mice, L1210 leukemia ip, survival T/C
Test: NCI In Vivo Anticancer Drug Screen. Data for tumor model L1210 Leukemia (intraperitoneal) in CD2F1 (CDF1) mice
Settings: higher = longer survival
Outline: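 In this screen, transplantable tumors were grown in mice given either the compound or its vehicle. Results were expressed as the treated measurement relative to the control measurement.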

[1] = endpoint: mean survival time, dose: 25.0 mg/kg/injection, schedule: Q01DX009 (ip), vehicle: saline with Tween-80
[2] = endpoint: mean survival time, dose: 50.0 mg/kg/injection, schedule: Q01DX009 (ip), vehicle: saline with Tween-80
[3] = endpoint: mean survival time, dose: 100.0 mg/kg/injection, schedule: Q01DX009 (ip), vehicle: saline with Tween-80
[4] = endpoint: mean survival time, dose: 400.0 mg/kg/injection, schedule: Q01DX009 (ip), vehicle: saline with Tween-80
[5] = endpoint: mean survival time, dose: 100.0 mg/kg/injection, schedule: Q04DX003 (ip), vehicle: saline with Tween-80
[6] = endpoint: mean survival time, dose: 200.0 mg/kg/injection, schedule: Q04DX003 (ip), vehicle: saline with Tween-80
[7] = endpoint: mean survival time, dose: 100.0 mg/kg/injection, schedule: Q01DX001 (ip), vehicle: saline
[8] = endpoint: mean survival time, dose: 200.0 mg/kg/injection, schedule: Q01DX001 (ip), vehicle: saline
[9] = endpoint: mean survival time, dose: 400.0 mg/kg/injection, schedule: Q01DX001 (ip), vehicle: saline
[10] = endpoint: mean survival time, dose: 200.0 mg/kg/injection, schedule: Q04DX003 (ip), vehicle: Klucel (hydroxypropylcellulose) (HPC)
[11] = endpoint: mean survival time, dose: 100.0 mg/kg/injection, schedule: Q04DX003 (ip), vehicle: saline
[12] = endpoint: mean survival time, dose: 200.0 mg/kg/injection, schedule: Q04DX003 (ip), vehicle: saline
[13] = endpoint: mean survival time, dose: 400.0 mg/kg/injection, schedule: Q04DX003 (ip), vehicle: saline
[14] = endpoint: mean survival time, dose: 400.0 mg/kg/injection, schedule: Q04DX003 (ip), vehicle: saline with Tween-80

Cn1ccc(=Nc2ccc(NC(=O)c3ccc(N=c4ccn(C)c5ccc([N+](=O)[O-])cc45)cc3[N+](=O)[O-])cc2)cc1
T/C (endpoint: mean survival time, dose: 12.5 mg/kg/injection, schedule: Q01DX009 (ip), vehicle: saline with Tween-80): 101 % of control | T/C [1]: 113 % of control | T/C [2]: 119 % of control | T/C [3]: 119 % of control | T/C [4]: 95 % of control

CCC1CCC(NC(=O)NC)CC1 (stereo not drawn)
T/C [5]: 99 % of control | T/C [6]: 92 % of control

CC(C)(C)OC(=O)C12CCCC(C(=O)OC(C)(C)C)(OO1)O2
T/C [7]: 95 % of control | T/C [8]: 95 % of control | T/C [9]: 101 % of control

O=C(Nc1ccc(S(=O)(=O)F)cc1)c1ccc([N+](=O)[O-])cc1
T/C [7]: 105 % of control | T/C [8]: 100 % of control | T/C [9]: 100 % of control

Cn1c(C(O)c2cccnc2)c(CN2CCCCC2)c2ccccc21 (stereo not drawn)
T/C (endpoint: mean survival time, dose: 100.0 mg/kg/injection, schedule: Q01DX001 (ip), vehicle: saline with Tween-80): 97 % of control | T/C (endpoint: mean survival time, dose: 200.0 mg/kg/injection, schedule: Q01DX001 (ip), vehicle: saline with Tween-80): 94 % of control

O=C(NC1CCCCC1)OCC#CC#CCOC(=O)NC1CCCCC1
T/C (endpoint: mean survival time, dose: 100.0 mg/kg/injection, schedule: Q04DX003 (ip), vehicle: Klucel (hydroxypropylcellulose) (HPC)): 94 % of control | T/C [10]: 96 % of control | T/C (endpoint: mean survival time, dose: 400.0 mg/kg/injection, schedule: Q04DX003 (ip), vehicle: Klucel (hydroxypropylcellulose) (HPC)): 100 % of control

OC(CBr)C(O)C(O)C(O)CBr (stereo not drawn)
T/C (endpoint: mean survival time, dose: 25.0 mg/kg/injection, schedule: Q01DX009 (oral), vehicle: other): 109 % of control | T/C (endpoint: mean survival time, dose: 50.0 mg/kg/injection, schedule: Q01DX009 (oral), vehicle: other): 112 % of control | T/C [7]: 103 % of control | T/C (endpoint: mean survival time, dose: 100.0 mg/kg/injection, schedule: Q01DX009 (oral), vehicle: other): 121 % of control | T/C [11]: 101 % of control and 103 % of control | T/C [8]: 101 % of control | T/C [10]: 120 % of control | T/C [12]: 108 % of control | T/C (endpoint: mean survival time, dose: 237.0 mg/kg/injection, schedule: Q04DX003 (ip), vehicle: saline with Tween-80): 94 % of control | T/C (endpoint: mean survival time, dose: 355.55 mg/kg/injection, schedule: Q04DX003 (ip), vehicle: saline with Tween-80): 89 % of control | T/C [9]: 106 % of control | T/C (endpoint: mean survival time, dose: 400.0 mg/kg/injection, schedule: Q01DX009 (oral), vehicle: other): 113 % of control | T/C [13]: 101 % of control and 108 % of control | T/C (endpoint: mean survival time, dose: 533.33 mg/kg/injection, schedule: Q04DX003 (ip), vehicle: saline with Tween-80): 99 % of control | T/C (endpoint: mean survival time, dose: 800.0 mg/kg/injection, schedule: Q04DX003 (ip), vehicle: saline with Tween-80): 94 % of control | T/C (endpoint: mean survival time, dose: 800.0 mg/kg/injection, schedule: Q04DX003 (ip), vehicle: saline): 116 % of control | T/C (endpoint: mean survival time, dose: 1200.0 mg/kg/injection, schedule: Q04DX003 (ip), vehicle: saline with Tween-80): 98 % of control | T/C (endpoint: mean survival time, dose: 1200.0 mg/kg/injection, schedule: Q04DX003 (ip), vehicle: saline): 114 % of control | T/C (endpoint: median survival time, dose: 8.0 mg/kg/injection, schedule: Q03HX024 (ip), vehicle: Klucel (hydroxypropylcellulose) (HPC)): 103 % of control | T/C (endpoint: median survival time, dose: 16.0 mg/kg/injection, schedule: Q03HX008 (ip), vehicle: Klucel (hydroxypropylcellulose) (HPC)): 108 % of control | T/C (endpoint: median survival time, dose: 16.0 mg/kg/injection, schedule: Q03HX016 (ip), vehicle: Klucel (hydroxypropylcellulose) (HPC)): 105 % of control | T/C (endpoint: median survival time, dose: 16.0 mg/kg/injection, schedule: Q03HX024 (ip), vehicle: Klucel (hydroxypropylcellulose) (HPC)): 106 % of control | T/C (endpoint: median survival time, dose: 32.0 mg/kg/injection, schedule: Q01DX009 (ip), vehicle: Klucel (hydroxypropylcellulose) (HPC)): 104 % of control | T/C (endpoint: median survival time, dose: 32.0 mg/kg/injection, schedule: Q03HX008 (ip), vehicle: Klucel (hydroxypropylcellulose) (HPC)): 115 % of control | T/C (endpoint: median survival time, dose: 32.0 mg/kg/injection, schedule: Q03HX016 (ip), vehicle: Klucel (hydroxypropylcellulose) (HPC)): 103 % of control | T/C (endpoint: median survival time, dose: 32.0 mg/kg/injection, schedule: Q03HX024 (ip), vehicle: Klucel (hydroxypropylcellulose) (HPC)): 109 % of control | T/C (endpoint: median survival time, dose: 64.0 mg/kg/injection, schedule: Q01DX009 (ip), vehicle: Klucel (hydroxypropylcellulose) (HPC)): 105 % of control | T/C (endpoint: median survival time, dose: 64.0 mg/kg/injection, schedule: Q04DX003 (ip), vehicle: Klucel (hydroxypropylcellulose) (HPC)): 109 % of control | T/C (endpoint: median survival time, dose: 120.0 mg/kg/injection, schedule: Q01DX005 (ip), vehicle: Klucel (hydroxypropylcellulose) (HPC)): 151 % of control and 159 % of control and 163 % of control | T/C (endpoint: median survival time, dose: 128.0 mg/kg/injection, schedule: Q01DX001 (ip), vehicle: Klucel (hydroxypropylcellulose) (HPC)): 108 % of control | T/C (endpoint: median survival time, dose: 128.0 mg/kg/injection, schedule: Q01DX009 (ip), vehicle: Klucel (hydroxypropylcellulose) (HPC)): 86 % of control | T/C (endpoint: median survival time, dose: 128.0 mg/kg/injection, schedule: Q04DX003 (ip), vehicle: Klucel (hydroxypropylcellulose) (HPC)): 122 % of control | T/C (endpoint: median survival time, dose: 128.0 mg/kg/injection, schedule: Q08DX002 (ip), vehicle: Klucel (hydroxypropylcellulose) (HPC)): 109 % of control | T/C (endpoint: median survival time, dose: 180.0 mg/kg/injection, schedule: Q01DX005 (ip), vehicle: Klucel (hydroxypropylcellulose) (HPC)): 155 % of control and 162 % of control and 164 % of control | T/C (endpoint: median survival time, dose: 200.0 mg/kg/injection, schedule: Q04DX003 (ip), vehicle: Klucel (hydroxypropylcellulose) (HPC)): 151 % of control | T/C (endpoint: median survival time, dose: 256.0 mg/kg/injection, schedule: Q01DX001 (ip), vehicle: Klucel (hydroxypropylcellulose) (HPC)): 112 % of control | T/C (endpoint: median survival time, dose: 256.0 mg/kg/injection, schedule: Q04DX003 (ip), vehicle: Klucel (hydroxypropylcellulose) (HPC)): 109 % of control | T/C (endpoint: median survival time, dose: 256.0 mg/kg/injection, schedule: Q08DX002 (ip), vehicle: Klucel (hydroxypropylcellulose) (HPC)): 114 % of control | T/C (endpoint: median survival time, dose: 270.0 mg/kg/injection, schedule: Q01DX005 (ip), vehicle: Klucel (hydroxypropylcellulose) (HPC)): 100 % of control | T/C (endpoint: median survival time, dose: 300.0 mg/kg/injection, schedule: Q04DX003 (ip), vehicle: Klucel (hydroxypropylcellulose) (HPC)): 155 % of control and 184 % of control and 197 % of control | T/C (endpoint: median survival time, dose: 400.0 mg/kg/injection, schedule: Q04DX003 (ip), vehicle: Klucel (hydroxypropylcellulose) (HPC)): 195 % of control | T/C (endpoint: median survival time, dose: 512.0 mg/kg/injection, schedule: Q01DX001 (ip), vehicle: Klucel (hydroxypropylcellulose) (HPC)): 95 % of control | T/C (endpoint: median survival time, dose: 512.0 mg/kg/injection, schedule: Q04DX003 (ip), vehicle: Klucel (hydroxypropylcellulose) (HPC)): 112 % of control | T/C (endpoint: median survival time, dose: 512.0 mg/kg/injection, schedule: Q08DX002 (ip), vehicle: Klucel (hydroxypropylcellulose) (HPC)): 122 % of control

COC(=O)Nc1nc2ccc(SC)cc2c(=O)[nH]1
T/C (endpoint: median survival time, dose: 25.0 mg/kg/injection, schedule: Q01DX009 (ip), vehicle: Klucel (hydroxypropylcellulose) (HPC)): 98 % of control | T/C (endpoint: median survival time, dose: 50.0 mg/kg/injection, schedule: Q01DX009 (ip), vehicle: Klucel (hydroxypropylcellulose) (HPC)): 98 % of control | T/C (endpoint: median survival time, dose: 100.0 mg/kg/injection, schedule: Q01DX009 (ip), vehicle: Klucel (hydroxypropylcellulose) (HPC)): 98 % of control | T/C (endpoint: median survival time, dose: 200.0 mg/kg/injection, schedule: Q01DX009 (ip), vehicle: Klucel (hydroxypropylcellulose) (HPC)): 112 % of control

Cc1ncc2c(=O)[nH]cnc2n1
T/C [5]: 93 % of control | T/C [6]: 91 % of control | T/C [14]: 90 % of control

CN(C)C(SCc1ccccc1)=[N+](C)C
T/C (endpoint: mean survival time, dose: 100.0 mg/kg/injection, schedule: Q04DX002 (ip), vehicle: saline with Tween-80): 105 % of control | T/C (endpoint: mean survival time, dose: 200.0 mg/kg/injection, schedule: Q04DX002 (ip), vehicle: saline with Tween-80): 94 % of control

CCCCCC(O)C(C)C (stereo not drawn)
T/C (endpoint: mean survival time, dose: 75.0 mg/kg/injection, schedule: Q01DX001 (ip), vehicle: saline): 98 % of control | T/C (endpoint: mean survival time, dose: 150.0 mg/kg/injection, schedule: Q01DX001 (ip), vehicle: saline): 91 % of control

CCOc1ccc(NC(=O)C2CCC(C)(C(=O)O)C2(C)C)cc1 (stereo not drawn)
T/C [1]: 102 % of control | T/C (endpoint: mean survival time, dose: 25.0 mg/kg/injection, schedule: Q04DX003 (ip), vehicle: saline with Tween-80): 98 % of control | T/C [2]: 98 % of control | T/C (endpoint: mean survival time, dose: 50.0 mg/kg/injection, schedule: Q04DX003 (ip), vehicle: saline with Tween-80): 100 % of control | T/C [3]: 95 % of control | T/C [5]: 96 % of control and 98 % of control

CCOC(=O)c1cnc[nH]c1=O
T/C [5]: 104 % of control | T/C [6]: 104 % of control | T/C [14]: 96 % of control

CCOC(=O)Cc1cccc(CC(O)(c2ccccc2)c2ccccc2)n1
T/C [3]: 100 % of control | T/C [11]: 92 % of control | T/C (endpoint: mean survival time, dose: 200.0 mg/kg/injection, schedule: Q01DX009 (ip), vehicle: saline with Tween-80): 98 % of control | T/C [12]: 90 % of control | T/C [4]: 100 % of control | T/C [13]: 87 % of control
